# Where two headings read alike, the source gives them in different places.
# Experiments:
# [1] = biological target: T1, CDK9/CycT1 (Homo sapiens, UniProt P50750); experiment: CDK9/CycT1 kinase assay (Method 1a); assay type: biochemical; settings: 10 μM ATP
# T1 construct: Recombinant full-length His-tagged human CDK9 and CycT1; His; purchased Invitrogen PV4131; host or cells: insect cells
# Excerpt: 1a. CDK9/CycT1 Kinase Assay:
# CDK9/CycT1-inhibitory activity of compounds of the present invention was quantified employing the CDK9/CycT1 TR-FRET assay as described in the following paragraphs:
# Recombinant full-length His-tagged human CDK9 and CycT1, expressed in insect cells and purified by Ni-NTA affinity chromatography, were purchased from Invitrogen (Cat. No PV4131). As substrate for the kinase reaction biotinylated peptide biotin-Ttds-YISPLKSPYKISEG (C-terminus in amid form) was used which can be purchased e.g. form the company JERINI Peptide Technologies (Berlin, Germany) For the assay 50 nl of a 100 fold concentrated solution of the test compound in DMSO was pipetted into a black low volume 384 well microtiter plate (Greiner Bio-One, Frickenhausen, Germany), 2 μl of a solution of CDK9/CycT1 in aqueous assay buffer [50 mM Tris/HCl pH 8.0, 10 mM MgCl2, 1.0 mM dithiothreitol, 0.1 mM sodium ortho-vanadate, 0.01% (v/v) Nonidet-P40 (Sigma)] were added and the mixture was incubated for 15 min at 22° C. to allow pre-binding of the test compounds to the enzyme before the start of the kinase reaction. Then the kinase reaction was started by the addition of 3 μl of a solution of adenosine-tri-phosphate (ATP, 16.7 μM=>final conc. in the 5 μl assay volume is 10 μM) and substrate (1.67 μM=>final conc. in the 5 μl assay volume is 1 μM) in assay buffer and the resulting mixture was incubated for a reaction time of 25 min at 22° C. The concentration of CDK9/CycT1 was adjusted depending of the activity of the enzyme lot and was chosen appropriate to have the assay in the linear range, typical concentrations were in the range of 1 μg/ml. The reaction was stopped by the addition of 5 μl of a solution of TR-FRET detection reagents (0.2 μM streptavidine-XL665 [Cisbio Bioassays, Codolet, France] and 1 nM anti-RB(pSer807/pSer811)-antibody from BD Pharmingen [#558389] and 1.2 nM LANCE EU-W1024 labeled anti-mouse IgG antibody [Perkin-Elmer, product no. AD0077]) in an aqueous EDTA-solution (100 mM EDTA, 0.2% (w/v) bovine serum albumin in 100 mM HEPES/NaOH pH 7.0).
# The resulting mixture was incubated 1 h at 22° C. to allow the formation of complex between the phosphorylated biotinylated peptide and the detection reagents. Subsequently the amount of phosphorylated substrate was evaluated by measurement of the resonance energy transfer from the Eu-chelate to the streptavidine-XL. Therefore, the fluorescence emissions at 620 nm and 665 nm after excitation at 350 nm was measured in a HTRF reader, e.g. a Rubystar (BMG Labtechnologies, Offenburg, Germany) or a Viewlux (Perkin-Elmer). The ratio of the emissions at 665 nm and at […] was taken as the measure for the amount of phosphorylated substrate. The data were normalised (enzyme reaction without inhibitor=0% inhibition, all other assay components but no enzyme=100% inhibition).
# [2] = system: MOLM-13 cells; experiment: Proliferation assay, MOLM-13 (Method 3); assay type: cell-based, human; settings: 72-hour exposure, Cell Titre-Glo, read-out: Inhibition of MOLM 13 cell proliferation IC50
# Protocol: Non-adherent MOLM-13 human acute myeloid leukemia cells (DSMZ ACC 554) were seeded at a density of 5,000 cells/well in a 96-well multititer plate in 100 μL of growth medium supplemented 10% fetal calf serum. After 24 hours, cell viability of one plate (zero-point plate) was determined with the Cell Titre-Glo Luminescent Cell Viability Assay (Promega), while 50 μl of test compound containing medium was added to the wells of the other plates (final concentrations in the range of 0.001-10 μM and DMSO controls; the final concentration of the solvent dimethyl sulfoxide was 0.5%). Cell viability was assessed after 72-hour exposure with the Cell Titre-Glo Luminescent Cell Viability Assay (Promega). IC50 values (inhibitory concentration at 50% of maximal effect) were determined by means of a 4 parameter fit on measurement data which were normalized to vehicle (DMSO) treated cells (=100%) and measurement readings taken immediately before compound exposure (=0%).
# T1 sequence (P50750 whole entry): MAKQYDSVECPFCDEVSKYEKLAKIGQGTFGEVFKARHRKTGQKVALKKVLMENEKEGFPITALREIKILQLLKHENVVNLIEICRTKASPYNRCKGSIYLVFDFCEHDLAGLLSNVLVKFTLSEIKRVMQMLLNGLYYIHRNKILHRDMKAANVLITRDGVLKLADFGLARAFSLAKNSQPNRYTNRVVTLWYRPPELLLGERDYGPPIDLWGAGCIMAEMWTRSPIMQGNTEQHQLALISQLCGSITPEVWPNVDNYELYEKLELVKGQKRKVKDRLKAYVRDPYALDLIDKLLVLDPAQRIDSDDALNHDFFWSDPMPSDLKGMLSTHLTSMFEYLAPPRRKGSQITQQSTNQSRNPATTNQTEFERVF
# T1 sequence (O60563 whole entry partner): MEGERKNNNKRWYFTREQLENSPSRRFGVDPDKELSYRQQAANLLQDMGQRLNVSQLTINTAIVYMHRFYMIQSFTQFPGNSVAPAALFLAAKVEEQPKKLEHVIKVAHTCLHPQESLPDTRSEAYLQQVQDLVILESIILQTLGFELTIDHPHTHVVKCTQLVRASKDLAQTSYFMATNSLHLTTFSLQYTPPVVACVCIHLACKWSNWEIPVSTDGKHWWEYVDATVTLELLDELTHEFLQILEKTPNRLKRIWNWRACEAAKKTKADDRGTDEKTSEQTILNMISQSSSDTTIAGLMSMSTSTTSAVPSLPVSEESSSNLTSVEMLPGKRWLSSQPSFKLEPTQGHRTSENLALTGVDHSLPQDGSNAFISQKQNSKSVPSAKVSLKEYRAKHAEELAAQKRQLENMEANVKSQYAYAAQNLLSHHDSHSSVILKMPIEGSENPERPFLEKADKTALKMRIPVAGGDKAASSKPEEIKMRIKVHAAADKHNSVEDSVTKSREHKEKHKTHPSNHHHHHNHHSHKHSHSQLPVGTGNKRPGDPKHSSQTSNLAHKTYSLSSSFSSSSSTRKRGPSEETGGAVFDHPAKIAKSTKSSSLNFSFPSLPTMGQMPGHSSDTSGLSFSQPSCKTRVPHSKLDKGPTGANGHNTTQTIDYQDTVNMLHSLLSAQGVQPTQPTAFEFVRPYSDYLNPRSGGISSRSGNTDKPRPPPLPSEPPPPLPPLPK
SMILES,IC50 [1] [nM],"IC50 ([2]; Homo sapiens, MOLM-13, 72 h) [nM]",IC50 [2] [nM]
"COc1cc(F)ccc1-c1cc(Nc2cc(CS(C)(=N)=O)cc(C)n2)ncn1 (single isomer, unassigned) [Example 8, 6-(4-Fluoro-2-methoxyphenyl)-N-{6-methyl-4-[(S-methylsulfonimidoyl)methyl]pyridin-2-yl}pyrimidin-4-amine]",4,64,
"COc1cc(F)ccc1-c1cc(Nc2cc(CS(C)(=N)=O)ccn2)ncn1 (single isomer, unassigned) [Example 2, 6-(4-Fluoro-2-methoxyphenyl)-N-{4-[(S-methylsulfonimidoyl)methyl]pyridin-2-yl}pyrimidin-4-amine]",9,,189
"COc1cc(F)ccc1-c1cc(Nc2cc(CS(C)(=N)=O)cc(Cl)n2)ncn1 (single isomer, unassigned) [Example 6, N-{6-Chloro-4-[(S-methylsulfonimidoyl)methyl]pyridin-2-yl}-6-(4-fluoro-2-methoxyphenyl)pyrimidin-4-amine]",4,,44
"COc1cc(F)ccc1-c1cc(Nc2cc(CS(C)(=N)=O)cc(Cl)n2)ncn1 (racemic) [Example 4, (rac)-N-{6-Chloro-4-[(S-methylsulfonimidoyl)methyl]pyridin-2-yl}-6-(4-fluoro-2-methoxyphenyl)pyrimidin-4-amine]",4,47,
"COc1cc(F)ccc1-c1cc(Nc2cc(CS(C)(=N)=O)cc(Cl)n2)ncn1 (single isomer, unassigned) [Example 5, N-{6-Chloro-4-[(S-methylsulfonimidoyl)methyl]pyridin-2-yl}-6-(4-fluoro-2-methoxyphenyl)pyrimidin-4-amine]",5,33,
"COc1cc(F)ccc1-c1cc(Nc2cc(CS(C)(=N)=O)ccn2)ncn1 (single isomer, unassigned) [Example 3, 6-(4-Fluoro-2-methoxyphenyl)-N-{4-[(S-methylsulfonimidoyl)methyl]pyridin-2-yl}pyrimidin-4-amine]",4,,80
"COc1cc(F)ccc1-c1cc(Nc2cc(CS(C)(=N)=O)cc(C(F)(F)F)n2)ncn1 (racemic) [Example 10, (rac)-6-(4-Fluoro-2-methoxyphenyl)-N-{4-[(S-methylsulfonimidoyl)methyl]-6-(trifluoromethyl)pyridin-2-yl}pyrimidin-4-amine]",5,32,
"COc1cc(F)ccc1-c1cc(Nc2cc(CS(C)(=N)=O)cc(C)n2)ncn1 (single isomer, unassigned) [Example 9, 6-(4-Fluoro-2-methoxyphenyl)-N-{6-methyl-4-[(S-methylsulfonimidoyl)methyl]pyridin-2-yl}pyrimidin-4-amine]",4,,43
"COc1cc(F)ccc1-c1cc(Nc2cc(CS(C)(=N)=O)cc(C)n2)ncn1 (racemic) [Example 7, (rac)-6-(4-Fluoro-2-methoxyphenyl)-N-{6-methyl-4-[(S-methylsulfonimidoyl)methyl]pyridin-2-yl}pyrimidin-4-amine]",5,53,
"COc1cc(F)ccc1-c1cc(Nc2cc(CS(C)(=N)=O)ccn2)ncn1 (racemic) [Example 1, (rac)-6-(4-Fluoro-2-methoxyphenyl)-N-{4-[(S-methylsulfonimidoyl)methyl]pyridin-2-yl}pyrimidin-4-amine]",5,,
